According to patent publication US20220062268A1, “PHARMACEUTICAL COMPOSITION FOR THE TREATMENT OF PARKINSON'S DISEASE” (Teva Pharmaceuticals International GmbH, priority 2014, published 2022):
Entries after “also recorded” stand apart in the source; their conditions may differ. Where two headings read alike, the source gives them in different places.

How the values were obtained:
striatal dopamine = conditions: compared to L-DOPA, cited from earlier work
[1] = system: MPTP monkey model of Parkinson's disease; assay: MPTP monkey model of Parkinson's disease: tremor and Good ON; type: in vivo, Macaca fascicularis; conditions: MPTP macaques; DP-102 versus same dose of L-DOPA; tremor score summed over 3 hours post dose; FIG. 1
Description: Macaques (Macaca fascicularis) were rendered parkinsonian by repeated daily injections of MPTP hydrochloride (0.2 mg/kg, i.v.) until parkinsonian signs appeared. The degree of parkinsonism was assessed using a validated parkinsonian macaque clinical scale which rates the following symptoms of parkinsonian disability: tremor (0-3), variations in the general level of activity (0-3), body posture (flexion of spine; 0-3), vocalization (0-2), freezing (0-2), frequency of arm movements (reaching for food, 0-3 for each upper limb), and rigidity (0-3 for each upper limb).
The maximum parkinsonian disability score was 25. MPTP administration was stopped when a score of 6 was reached on the above scale (usually day 13-17). The macaques were left untreated, for a minimum of 6 weeks, until their parkinsonism became stable.
This study assessed the test item in a within-subject design with an intra-individually escalating dosage regimen.
Eight animals were randomly assigned to one of two treatment sequence groups (1: AB, 2: BA). […]
Tremor was assessed for 3 hours post L-DOPA administration for 10 minutes every 30 minutes, by post hoc analysis of video recordings by a trained assessor blinded to the study treatments. […]
The anti-parkinsonian action was evaluated based upon the “ON” state of the animals. […]

Parkinson models = conditions: cited from earlier work
[2] = neutral pH; cited from earlier work
late Parkinson's disease = conditions: cited from earlier work

SMILES: [2H][C@@H](c1ccc(O)c(O)c1)[C@]([2H])(N)C(=O)O [α,β-D2-L-DOPA, S/S-2-amino-2,3-dideutero-3-(3,4-dihydroxyphenyl) propionic acid]
- striatal dopamine levels (striatal dopamine): increase and prolong the output of striatal dopamine significantly more than L-DOPA; also recorded: highest striatal dopamine concentrations

SMILES: [2H]C([2H])(c1ccc(O)c(O)c1)[C@]([2H])(N)C(=O)O [DP-102, L-2-Amino-2,3,3-trideutero-3-(3,4-dihydroxyphenyl) propionic acid]
- tremor in relation to Good ON [1]: less tremor at more Good ON
- equi-effective dose compared to L-DOPA (Parkinson models; in vivo): about 60%
- motor activity (Parkinson models; several Parkinson models, compared to L-DOPA): improved motor activity compared to L-DOPA
- striatal dopamine levels (striatal dopamine; listed as α,β,β-D3-L-DOPA): higher longer-lasting striatal dopamine levels than L-DOPA; also recorded: increase and prolong the output of striatal dopamine significantly more than L-DOPA

SMILES: N[C@@H](Cc1ccc(O)c(O)c1)C(=O)O [L-DOPA, (2S)-2-amino-3-(3,4-dihydroxyphenyl)propanoic acid, reference compound]
- tremor in relation to Good ON [1]: higher or observed at lower Good ON levels
- solubility [2]: poorly dissolved at neutral pH

SMILES: CN1CCc2cccc3c2[C@H]1Cc1ccc(O)c(O)c1-3 [apomorphine]
- dose of oral L-DOPA under infused apomorphine (late Parkinson's disease; daily dose of infused apomorphine 72.00±21.38 mg, reduced from 989.4±420.1 mg/day (Ruiz et al.)): 663.8 ± 403.2 mg/day
- reduction of L-DOPA (late Parkinson's disease; mean daily apomorphine dose of 75.2 mg (Katzenschlager et al.)): 55%
